Data on 10 compounds can be found in ChEMBL document CHEMBL1201862, “PubChem BioAssay data set” (2004).

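1) Cells in 96-well plates. 2) Compound, 48 h, 5 concentrations. 3) Linear interpolation between surrounding doses. 4) Unreached endpoint = highest concentration. The concentration for 50% growth inhibition is given as GI50.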 Active and inactive are the calls of the source. Rule as the data show it: active = GI50 up to about 1.1 µM and inactive = higher. *1 amine or outer side, *2 acyl side, *3 side chain or, on linkers, in order; H or OH if unused. Where a SMILES comes first, the peptide text is derived from it. [ ]: non-standard residue; d: D form. The star is where a group is joined. ξ: configuration not given here. X43 = CCC(=O)CC(O)CC(C)CC(N[*:1])C(=O)[*:2]; ξLeu(3ξ-OH) = CC(C)C(O)C(N)C(=O)O; ξPro(4ξ-Me) = CC1CNC(C(=O)O)C1; X42 = CCC(C)/C=C/C(=O)*; Aib = CC(C)(N)C(=O)O; X44 = CC(CN(C)C)N*; βAla = NCCC(=O)O

Some test systems named below: HOP-62; NCI-H460; MOLT-4; HOP-92; SK-MEL-2; OVCAR-8; IGROV-1; M14; UACC-257; SK-MEL-28; SNB-75; U-251; RXF 393; Malme-3M; EKVX; SR; CCRF-CEM; SNB-19; OVCAR-3; HL-60.
What all share (assay): NCI anticancer screen, dose series, 48 h

`CCSc1nnc(CSc2nc(-c3ccccc3)c(-c3ccccc3)[nH]2)n1-c1ccccc1`: the GI50 was 20.2 µM (inactive) in the experiment with HOP-62; 18.9 µM (inactive) with NCI-H460; 15.2 µM (inactive) in the experiment on MOLT-4; 20.8 µM (inactive) with HOP-92; 21.7 µM (inactive) with SK-MEL-2; 21.6 µM (inactive) with OVCAR-8. Besides, the GI50 with IGROV-1 is 20.9 µM (inactive); with M14, 19 µM (inactive); in the experiment with UACC-257 it was 18.6 µM (inactive); with SK-MEL-28, 21 µM (inactive); with SNB-75, 18.4 µM (inactive); in the experiment on U-251, 17.9 µM (inactive). Also, the GI50 in the experiment on RXF 393 was 25.8 µM (inactive); in the experiment with Malme-3M it was 20 µM (inactive); in the experiment on EKVX it was 24.4 µM (inactive); in the experiment with SR, 24.3 µM (inactive); with CCRF-CEM, 17 µM (inactive); in the experiment on SNB-19, 16.1 µM (inactive). Also, the GI50 in the experiment on OVCAR-3 is 15.9 µM (inactive); with HL-60, 25.8 µM (inactive).

As for `c1ccc(/N=C2\c3ccccc3CN2c2ccccc2)cc1`, the GI50 is > 100 µM (inactive) with HOP-62; > 100 µM (inactive) in the experiment on NCI-H460; > 100 µM (inactive) with MOLT-4; 46.5 µM (inactive) in the experiment with HOP-92; > 100 µM (inactive) in the experiment with SK-MEL-2; > 100 µM (inactive) in the experiment on OVCAR-8. For the same compound, the GI50 was > 100 µM (inactive) in the experiment with IGROV-1; > 100 µM (inactive) in the experiment with M14; > 100 µM (inactive) in the experiment with UACC-257; > 100 µM (inactive) in the experiment on SK-MEL-28; 74.3 µM (inactive) with SNB-75; > 100 µM (inactive) with U-251. The GI50 with RXF 393, in the experiment on Malme-3M, in the experiment with EKVX, with SR, in the experiment on CCRF-CEM and in the experiment with SNB-19 was > 100 µM (inactive) each time. The GI50 in the experiment with OVCAR-3 and in the experiment with HL-60 was > 100 µM (inactive) throughout.

Turning to `O/N=C1\Nc2ccccc2OCc2cc(Br)c(Br)cc2COc2ccccc2N\C1=N/O`, the GI50 in the experiment on HOP-62 was 15.5 µM (inactive); with NCI-H460, 13.2 µM (inactive); in the experiment with MOLT-4 it was 3.63 µM (inactive); with HOP-92, 12.6 µM (inactive); in the experiment with SK-MEL-2, 19.5 µM (inactive); in the experiment with OVCAR-8, 10.4 µM (inactive). The GI50 in the experiment with IGROV-1 was 2.79 µM (inactive); in the experiment with M14 it was 21.2 µM (inactive); with UACC-257, 21.8 µM (inactive); with SK-MEL-28, 22.6 µM (inactive); in the experiment with SNB-75, 20.2 µM (inactive); in the experiment with U-251 it was 13.8 µM (inactive). The GI50 in the experiment with RXF 393 is 16.6 µM (inactive); in the experiment with Malme-3M, 16.4 µM (inactive); in the experiment on EKVX, 15.2 µM (inactive); with SR it was 2.06 µM (inactive); with CCRF-CEM, 4.98 µM (inactive); in the experiment with SNB-19 it was 10.7 µM (inactive). In addition, the GI50 was 7.21 µM (inactive) with OVCAR-3 and 5.18 µM (inactive) in the experiment on HL-60.

For `COC(=O)c1c2c(cc3c1CC1(Cc4cc5c(c(C=O)c4C1)CCC5)C3)CCC2` (stereo not drawn), the GI50 with HOP-62 was 51.9 µM (inactive); in the experiment on NCI-H460, 45 µM (inactive); with MOLT-4, 17 µM (inactive); in the experiment on HOP-92, 19.3 µM (inactive); in the experiment with SK-MEL-2, 23.8 µM (inactive); with OVCAR-8 it was 42.8 µM (inactive). For the same compound, the GI50 in the experiment with IGROV-1 was 28.4 µM (inactive); in the experiment on M14 it was 22.2 µM (inactive); in the experiment on UACC-257, 21.2 µM (inactive); in the experiment with SK-MEL-28, 52.5 µM (inactive); with SNB-75, > 100 µM (inactive); in the experiment with U-251, 19.8 µM (inactive). The GI50 was 30.7 µM (inactive) in the experiment on RXF 393; 22.9 µM (inactive) in the experiment on Malme-3M; 62.1 µM (inactive) in the experiment with EKVX; 19.3 µM (inactive) with SR; 13.4 µM (inactive) in the experiment on CCRF-CEM; 44.7 µM (inactive) in the experiment on SNB-19. The GI50 was 23.3 µM (inactive) with OVCAR-3 and 25.8 µM (inactive) in the experiment on HL-60.

For `CC(C)(CO[C@H]1C[C@H]2CC[C@@]1(C)C2(C)C)[N+](=O)[O-]`, the GI50 with HOP-62 is 19.5 µM (inactive); in the experiment on NCI-H460, 19.6 µM (inactive); with MOLT-4, 18.1 µM (inactive); in the experiment with HOP-92 it was 14.6 µM (inactive); in the experiment with SK-MEL-2 it was 16.6 µM (inactive); in the experiment with OVCAR-8 it was 22.6 µM (inactive). Further, the GI50 with IGROV-1 was 30.8 µM (inactive); in the experiment with M14 it was 13.3 µM (inactive); in the experiment on UACC-257, 18.5 µM (inactive); with SK-MEL-28, 18.5 µM (inactive); in the experiment on SNB-75, 19.4 µM (inactive); in the experiment with U-251, 16.7 µM (inactive). Also, the GI50 is 11 µM (inactive) in the experiment on RXF 393; 20.3 µM (inactive) in the experiment with Malme-3M; 16.7 µM (inactive) with EKVX; 5.25 µM (inactive) in the experiment with SR; 18.8 µM (inactive) in the experiment with CCRF-CEM; 14.1 µM (inactive) in the experiment on SNB-19. Moreover, the GI50 with OVCAR-3 was 22.8 µM (inactive); in the experiment on HL-60, 0.0363 µM (active).

In the case of `Cc1cc2c(cc1C)C(=O)C1(C2)Cc2c(C)ccc(C)c2C1=O` (stereo not drawn), the GI50 is > 100 µM (inactive) in the experiment with NCI-H460; > 100 µM (inactive) in the experiment on MOLT-4; > 100 µM (inactive) in the experiment on HOP-92; > 100 µM (inactive) in the experiment with SK-MEL-2; > 100 µM (inactive) with OVCAR-8; 98.4 µM (inactive) in the experiment on IGROV-1. Besides, the GI50 in the experiment with M14 was > 100 µM (inactive); in the experiment with UACC-257, > 100 µM (inactive); in the experiment with SK-MEL-28, > 100 µM (inactive); with SNB-75, > 100 µM (inactive); in the experiment on U-251, > 100 µM (inactive); with RXF 393, 84.7 µM (inactive). Also, the GI50 was 84.9 µM (inactive) in the experiment with Malme-3M; > 100 µM (inactive) with EKVX; > 100 µM (inactive) in the experiment with SR; > 100 µM (inactive) with CCRF-CEM; > 100 µM (inactive) in the experiment on SNB-19; > 100 µM (inactive) in the experiment with OVCAR-3. In addition, the GI50 in the experiment with HL-60 is > 100 µM (inactive).

With `O=C(Cc1csc(-c2nc(CC(=O)NNc3ccccc3)cs2)n1)NNc1ccccc1`, the GI50 was > 100 µM (inactive) with HOP-62; 23.5 µM (inactive) in the experiment on NCI-H460; 39.4 µM (inactive) in the experiment with MOLT-4; > 100 µM (inactive) in the experiment on HOP-92; > 100 µM (inactive) with SK-MEL-2; > 100 µM (inactive) with OVCAR-8. In addition, the GI50 in the experiment with IGROV-1, in the experiment on M14, in the experiment on UACC-257, in the experiment on SK-MEL-28, in the experiment on SNB-75 and in the experiment with U-251 was > 100 µM (inactive) in each case. Also, the GI50 was > 100 µM (inactive) in the experiment with RXF 393; > 100 µM (inactive) with Malme-3M; > 100 µM (inactive) in the experiment on EKVX; 25.5 µM (inactive) in the experiment on SR; 34.9 µM (inactive) in the experiment on CCRF-CEM; > 100 µM (inactive) in the experiment with SNB-19. Also, the GI50 was > 100 µM (inactive) in the experiment on OVCAR-3 and 32 µM (inactive) in the experiment with HL-60.

In the case of `CC(C)CC(=O)NC(Nc1ccc(S(=O)(=O)Nc2ncccn2)cc1)(C(F)(F)F)C(F)(F)F`, the GI50 in the experiment with HOP-62, in the experiment on NCI-H460, in the experiment on MOLT-4, in the experiment on HOP-92, in the experiment on SK-MEL-2 and in the experiment with OVCAR-8 was > 100 µM (inactive) in each case. Moreover, the GI50 in the experiment with IGROV-1, with M14, with UACC-257, in the experiment with SK-MEL-28, with SNB-75 and in the experiment with U-251 was > 100 µM (inactive) in each case. Further, the GI50 is 20.4 µM (inactive) in the experiment with RXF 393; > 100 µM (inactive) in the experiment on Malme-3M; > 100 µM (inactive) in the experiment with EKVX; > 100 µM (inactive) in the experiment on SR; > 100 µM (inactive) in the experiment on CCRF-CEM; > 100 µM (inactive) with SNB-19. Besides, the GI50 in the experiment on OVCAR-3 and with HL-60 was > 100 µM (inactive) in each case.

As for `CCC(=O)CC(O)CC(C)CC(NC(=O)C1CC(C)CN1C(=O)/C=C/C(C)CC)C(=O)NC(C(=O)NC(C)(C)C(=O)NC(CC(C)C)C(=O)NC(CC(C)C)C(=O)NC(C)(C)C(=O)NC(C)(C)C(=O)NCCC(=O)NC(C)CN(C)C)C(O)C(C)C` (stereo not drawn) (X42-[ξPro(4ξ-Me)][X43][ξLeu(3ξ-OH)][Aib]LL[Aib][Aib][βAla]-X44; configuration not given here), the GI50 with HOP-62 was 0.151 µM (active); with NCI-H460 it was 0.0374 µM (active); in the experiment with MOLT-4, 0.00887 µM (active); in the experiment with HOP-92 it was 0.0887 µM (active); in the experiment with SK-MEL-2, 0.12 µM (active); with OVCAR-8, < 0.005 µM (active). Also, the GI50 in the experiment with IGROV-1 was 0.0746 µM (active); in the experiment on M14 it was 0.615 µM (active); in the experiment on UACC-257, < 0.005 µM (active); in the experiment with SK-MEL-28, 0.362 µM (active); in the experiment with SNB-75, 0.0165 µM (active); in the experiment with U-251, < 0.005 µM (active). Moreover, the GI50 in the experiment with RXF 393 is 0.38 µM (active); in the experiment on Malme-3M, 0.133 µM (active); in the experiment on EKVX, < 0.005 µM (active); in the experiment with SR, 0.028 µM (active); with CCRF-CEM, < 0.005 µM (active); in the experiment on SNB-19, 0.0115 µM (active). Moreover, the GI50 is 0.0074 µM (active) with OVCAR-3 and 0.00951 µM (active) with HL-60.

Consider `CCOP(=O)(OCC)C(Cc1cn(S(=O)(=O)c2ccc(C)cc2)cn1)C(=O)O` (stereo not drawn), for which the GI50 in the experiment on HOP-62, in the experiment on NCI-H460, in the experiment with MOLT-4, in the experiment on HOP-92, in the experiment on SK-MEL-2 and in the experiment with OVCAR-8 was > 100 µM (inactive) each time. For the same compound, the GI50 with IGROV-1, with M14, in the experiment on SK-MEL-28, in the experiment on SNB-75, in the experiment on U-251 and with RXF 393 was > 100 µM (inactive) each time. Also, the GI50 in the experiment with Malme-3M, with EKVX, with SR, in the experiment on CCRF-CEM, with SNB-19 and with OVCAR-3 was > 100 µM (inactive) throughout. In addition, the GI50 in the experiment on HL-60 is > 100 µM (inactive).
